pEC50: −log10 of the molar value.
tested on: HIV-1 (H9IIIB strain); experiment: Cell-Based HIV Infection Assay Using a Reporter (MT4-GFP cells); conditions: Human immunodeficiency virus 1, inflection point (IP) of viral growth inhibition; MT4-GFP cells infected with HIV-1 H9IIIB; 50% normal human serum; mean of at least two independent experiments; read-out: Cell Based IP (50% NHS)
Outline: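 MT4-GFP cells (HIV LTR-driven GFP) bulk-infected with HIV-1 H9IIIB at low MOI for 24 h, washed, then exposed to compounds in RPMI plus 50% normal human serum, 0.4% DMSO. Infected cells counted at 24 and 48 h; R0 = 48 h/24 h ratio, inhibition normalised to DMSO and triple-drug control; IP from 4-parameter fit.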

SMILES	pEC50
Cn1nc([C@H](c2ccc(Cl)c(F)c2)[C@H](N)C(=O)Nc2cccc(F)c2CC[C@H]2CN[C@@H]3CCCS(=O)(=O)N2C3)cc1C(F)(F)F [Example 265, (βR)-4-chloro-N-(2-{2-[(6R,9S)-2,2-dioxido-2-thia-1,7-diazabicyclo[4.3.1]dec-9-yl]ethyl}-3-fluorophenyl)-3-fluoro-β-[1-methyl-5-(trifluoromethyl)-1H-pyrazol-3-yl]-L-phenylalaninamide]	8.01
CC(F)(F)c1ccc([C@H](c2ccc(Cl)cc2)[C@H](N)C(=O)Nc2cccc(F)c2CC[C@H]2CN[C@@H]3CCCS(=O)(=O)N2C3)cn1 [Example 12, (2S,3S)-2-amino-3-(4-chlorophenyl)-3-(6-(1,1-difluoroethyl)pyridin-3-yl)-N-(2-(2-((6R,9S)-2,2-dioxido-2-thia-1,7-diazabicyclo[4.3.1]decan-9-yl)ethyl)-3-fluorophenyl)propanamide]	8.23
CO[C@H]1CC[C@@](c2ccc(Cl)cc2)([C@H](N)C(=O)Nc2cccc(F)c2CC[C@H]2CN[C@@H]3CCCS(=O)(=O)N2C3)CC1 [Example 126, (2S)-2-amino-2-[cis-1-(4-chlorophenyl)-4-methoxycyclohexyl]-N-(2-{2-[(6R,9S)-2,2-dioxido-2-thia-1,7-diazabicyclo[4.3.1]dec-9-yl]ethyl}-3-fluorophenyl)ethanamide]	6.21
CC(C)Oc1ncc([C@H](c2ccc(F)cc2)[C@H](N)C(=O)Nc2cccc(F)c2CC[C@H]2CN[C@@H]3CCCS(=O)(=O)N2C3)cn1 [Example 23, (βS)—N-(2-{2-[(6R,9S)-2,2-Dioxido-2-thia-1,7-diazabicyclo[4.3.1]dec-9-yl]ethyl}-3-fluorophenyl)-4-fluoro-β-[2-(1-methylethoxy)pyrimidin-5-yf]-L-phenylalaninamide]	8.03
N[C@H](C(=O)N[C@H]1CCCC[C@@H]1CC[C@H]1CN[C@@H]2CCCS(=O)(=O)N1C2)C(c1ccc(F)cc1)c1ccc(F)cc1 [Example 93, N-[(1S,2R)-2-{2-[(6R,9S)-2,2-dioxido-2-thia-1,7-diazabicyclo[4.3.1]dec-9-yl]ethyl)cyclohexyl]-4-fluoro-β-(4-fluorophenyl)-L-phenylalaninamide]	7.25
CC(C)[C@H](c1ccc(Cl)cc1)[C@H](N)C(=O)Nc1cccc(F)c1CCC1CNC2CCCS(=O)(=O)N1C2 (stereo partly drawn) [Example 38, (βR)-4-chloro-N-{2-[2-(2,2-dioxido-2-thia-1,7-diazabicyclo[4.3.1]dec-9-yl)ethyl]-3-fluorophenyl}-β-(1-methylethyl)-L-phenylalaninamide]	7.55
N[C@H](C(=O)N[C@H]1CCCC[C@@H]1CC[C@H]1CN[C@@H]2CCCS(=O)(=O)N1C2)[C@@H](c1ccc(F)cc1)C1CCOCC1 [Example 156, (βR)-N-[(1S,2R)-2-{2-[(6R,9S)-2,2-dioxido-2-thia-1,7-diazabicyclo[4.3.1]dec-9-yl]ethyl}cyclohexyl]-4-fluoro-β-(tetrahydro-2H-pyran-4-yl)-L-phenylalaninamide]	6.70
C[C@@H]1CC([C@H](c2ccc(F)cc2)[C@H](N)C(=O)Nc2cccc(F)c2CC[C@H]2CN[C@@H]3CCCS(=O)(=O)N2C3)C[C@@H](C)O1 (stereo partly drawn) [Example 113, (βR)-β-[(2R,6R)-2,6-dimethyltetrahydro-2H-pyran-4-yl]-N-(2-{2-[(6R,9S)-2,2-dioxido-2-thia-1,7-diazabicyclo[4.3.1]dec-9-yl]ethyl}-3-fluorophenyl)-4-fluoro-L-phenylalaninamide]	7.66
CO[C@H]1CC[C@](c2ccc(Cl)cc2)([C@H](N)C(=O)Nc2cccc(F)c2CC[C@H]2CN[C@@H]3CCCS(=O)(=O)N2C3)CC1 [Example 171, (2S)-2-amino-2-[trans-1-(4-chlorophenyl)-4-methoxycyclohexyl]-N-(2-{2-[(6R,9S)-2,2-dioxido-2-thia-1,7-diazabicyclo[4.3.1]dec-9-yl]ethyl}-3-fluorophenyl)ethanamide]	7.47
COC(=O)N[C@H](C(=O)Nc1cccc(F)c1CCC1CNC2CCCS(=O)(=O)N1C2)C(c1ccc(Cl)cc1)c1ccc(OC(C)C)nc1 (stereo in doubt) [Example 94, methyl {(1S,2R)-2-(4-chlorophenyl)-1-({2-[2-(2,2-dioxido-2-thia-1,7-diazabicyclo[4.3.1]dec-9-yl)ethyl]-3-fluorophenyl}carbamoyl)-2-[6-(1-methylethoxy)pyridin-3-yl]ethyl}carbamate]	8.19
N[C@H](C(=O)Nc1cccc(F)c1CCC1CNC2CCCS(=O)(=O)N1C2)[C@@H](c1ccc(Cl)cc1)C1CCOCC1 (stereo partly drawn) [Example 36, (βR)-4-chloro-N-{2-[2-(2,2-dioxido-2-thia-1,7-diazabicycio[4.3.1]dec-9-yl)ethyl]-3-fluorophenyl}-β-(tetrahydro-2H-pyran-4-yl)-L-phenylalaninamide]	7.66
CO[C@H]1CC[C@H]([C@H](c2ccc(Cl)cc2)[C@H](N)C(=O)N[C@H]2CCCC[C@@H]2CC[C@H]2CN[C@@H]3CCCS(=O)(=O)N2C3)CC1 [Example 207, (βR)-4-chloro-N-[(1S,2R)-2-{2-[(6R,9S)-2,2-dioxido-2-thia-1,7-diazabicyclo[4.3.1]dec-9-yl]ethyl}cyclohexyl]-β-[(1r,4R)-4-methoxycyclohexyl]-L-phenylalaninamide]	7.40
N[C@H](C(=O)Nc1cccc(F)c1CC[C@H]1CNC2CCCS(=O)(=O)N1C2)C1(c2ccc(F)cc2)CCC(F)(F)CC1 (stereo partly drawn) [Example 39, (2S)-2-amino-2-[4,4-difluoro-1-(4-fluorophenyl)cyclohexyl]-N-(2-{2-[(9S)-2,2-dioxido-2-thia-1,7-diazabicyclo[4.3.1]dec-9-yl]ethyl}-3-fluorophenyl)ethanamide]	6.70
COC(=O)N[C@H](C(=O)Nc1cccc(F)c1CCC1CNC2CCCS(=O)(=O)N1C2)[C@@H](c1ccc(Cl)cc1)c1ccc(C(F)(F)F)nc1 (stereo partly drawn) [Example 21, Methyl {(1S,2S)-2-(4-chlorophenyl)-1-({2-[2-(2,2-dioxido-2-thia-1,7-diazabicyclo[4.3.1]dec-9-yl)ethyl]-3-fluorophenyl}carbamoyl)-2-[6-(trifluoromethyl)pyridin-3-yl]ethyl}carbamate]	8.30
CC1(C)C[C@@H]([C@H](c2ccc(Cl)cc2)[C@H](N)C(=O)N[C@H]2CCCC[C@@H]2CC[C@H]2CN[C@@H]3CCCS(=O)(=O)N2C3)CCO1 [Example 129, (βR)-4-chloro-β-[(4S)-2,2-dimethyltetrahydro-2H-pyran-4-yl]-N-[(1S,2R)-2-{2-[(6R,9S)-2,2-dioxido-2-thia-1,7-diazabicyclo[4.3.1]dec-9-yl]ethyl}cyclohexyl]-L-phenylalaninamide]	7.25
N[C@H](C(=O)Nc1cccc(F)c1CC[C@H]1CN[C@@H]2CCCS(=O)(=O)N1C2)[C@@H](c1ccc(F)cc1)c1cnc(C(F)(F)F)nc1 [Example 132, (βS)-N-(2-{2-[(6R,9S)-2,2-dioxido-2-thia-1,7-diazabicyclo[4.3.1]dec-9-yl]ethyl)-3-fluorophenyl)-4-fluoro-β-[2-(trifluoromethyl)pyrimidin-5-yl]-L-phenylalaninamide]	7.82
COc1ccc([C@H](c2ccc(F)c(F)c2)[C@H](N)C(=O)Nc2cccc(F)c2CCC2CNC3CCCS(=O)(=O)N2C3)cn1 (stereo partly drawn) [Example 66, (βS)-N-{2-[2-(2,2-dioxido-2-thia-1,7-diazabicyclo[4.3.1]dec-9-yl)ethyl]-3-fluorophenyl}-3,4-difluoro-β-(6-methoxypyridin-3-yl)-L-phenylalaninamide]	8.09
N[C@H](C(=O)Nc1cccc(F)c1CCC1CNC2CCCS(=O)(=O)N1C2)[C@@H](c1ccc(Cl)cc1)C1CC(F)(F)C1 (stereo partly drawn) [Example 48, (βR)-4-chloro-β-(3,3-difluorocyclobutyl)-N-{2-[2-(2,2-dioxido-2-thia-1,7-diazabicyclo[4.3.1]dec-9-yl)ethyl]-3-fluorophenyl}-L-phenylalaninamide]	7.48
N[C@H](C(=O)Nc1cncc(F)c1CC[C@H]1CN[C@@H]2CCCS(=O)(=O)N1C2)[C@@H](c1ccc(Cl)cc1)C1CCCC(F)(F)C1 (stereo partly drawn) [Example 272, (βR)-4-chloro-β-(3,3-difluorocyclohexyl)-N-(4-{2-[(6R,9S)-2,2-dioxido-2-thia-1,7-diazabicyclo[4.3.1]dec-9-yl]ethyl}-5-fluoropyridin-3-yl)-L-phenylalaninamide]	8.24
CO[C@H]1CC[C@H]([C@H](c2ccc(F)cc2)[C@H](N)C(=O)Nc2ccc(F)c(F)c2CC[C@H]2CN[C@@H]3CCCS(=O)(=O)N2C3)CC1 [Example 180, (βR)-N-(2-{2-[(6R,9S)-2,2-dioxido-2-thia-1,7-diazabicyclo[4.3.1]dec-9-yl]ethyl}-3,4-difluorophenyl)-4-fluoro-β-[(1r,4R)-4-methoxycyclohexyl]-L-phenylalaninamide]	7.96
N[C@H](C(=O)Nc1cccc(F)c1CCC1CNC2CCCS(=O)(=O)N1C2)[C@H](c1ccc(F)cc1)C1CC(F)(F)C1 (stereo partly drawn) [Example 64, (βS)-β-(3,3-difluorocyclobutyl)-N-{2-[2-(2,2-dioxido-2-thia-1,7-diazabicyclo[4.3.1]dec-9-yl)ethyl]-3-fluorophenyl}-4-fluoro-L-phenylalaninamide]	6.59
CC1(C)CC([C@H](c2ccc(Cl)cc2)[C@H](NCCO)C(=O)N[C@H]2CCC[C@@H]2CC[C@H]2CN[C@@H]3CCCS(=O)(=O)N2C3)CCO1 (stereo partly drawn) [Example 231, (βR)-4-chloro-β-(2,2-dimethyltetrahydro-2H-pyran-4-yl)-N-[(1S,2R)-2-{2-[(6R,9S)-2,2-dioxido-2-thia-1,7-diazabicyclo[4.3.1]dec-9-yl]ethyl}cyclopentyl]-Nα-(2-hydroxyethyl)-L-phenylalaninamide]	6.51
N[C@H](C(=O)Nc1cncc(F)c1CC[C@H]1CN[C@@H]2CCCS(=O)(=O)N1C2)[C@@H](c1ccc(Cl)cc1)C1CCC(F)(F)CC1 [Example 241, (2S,3R)-2-amino-3-(4-chlorophenyl)-3-(4,4-difluorocyclohexyl)-N-(4-(2-((6R,9S)-2,2-dioxido-2-thia-1,7-diazabicyclo[4.3.1]decan-9-yl)ethyl)-5-fluoropyridin-3-yl)propanamide]	8.14
